pIC50: −log10 of the molar value.

T1 sequence (P00533 25-1210 T790M/C797S/L858R): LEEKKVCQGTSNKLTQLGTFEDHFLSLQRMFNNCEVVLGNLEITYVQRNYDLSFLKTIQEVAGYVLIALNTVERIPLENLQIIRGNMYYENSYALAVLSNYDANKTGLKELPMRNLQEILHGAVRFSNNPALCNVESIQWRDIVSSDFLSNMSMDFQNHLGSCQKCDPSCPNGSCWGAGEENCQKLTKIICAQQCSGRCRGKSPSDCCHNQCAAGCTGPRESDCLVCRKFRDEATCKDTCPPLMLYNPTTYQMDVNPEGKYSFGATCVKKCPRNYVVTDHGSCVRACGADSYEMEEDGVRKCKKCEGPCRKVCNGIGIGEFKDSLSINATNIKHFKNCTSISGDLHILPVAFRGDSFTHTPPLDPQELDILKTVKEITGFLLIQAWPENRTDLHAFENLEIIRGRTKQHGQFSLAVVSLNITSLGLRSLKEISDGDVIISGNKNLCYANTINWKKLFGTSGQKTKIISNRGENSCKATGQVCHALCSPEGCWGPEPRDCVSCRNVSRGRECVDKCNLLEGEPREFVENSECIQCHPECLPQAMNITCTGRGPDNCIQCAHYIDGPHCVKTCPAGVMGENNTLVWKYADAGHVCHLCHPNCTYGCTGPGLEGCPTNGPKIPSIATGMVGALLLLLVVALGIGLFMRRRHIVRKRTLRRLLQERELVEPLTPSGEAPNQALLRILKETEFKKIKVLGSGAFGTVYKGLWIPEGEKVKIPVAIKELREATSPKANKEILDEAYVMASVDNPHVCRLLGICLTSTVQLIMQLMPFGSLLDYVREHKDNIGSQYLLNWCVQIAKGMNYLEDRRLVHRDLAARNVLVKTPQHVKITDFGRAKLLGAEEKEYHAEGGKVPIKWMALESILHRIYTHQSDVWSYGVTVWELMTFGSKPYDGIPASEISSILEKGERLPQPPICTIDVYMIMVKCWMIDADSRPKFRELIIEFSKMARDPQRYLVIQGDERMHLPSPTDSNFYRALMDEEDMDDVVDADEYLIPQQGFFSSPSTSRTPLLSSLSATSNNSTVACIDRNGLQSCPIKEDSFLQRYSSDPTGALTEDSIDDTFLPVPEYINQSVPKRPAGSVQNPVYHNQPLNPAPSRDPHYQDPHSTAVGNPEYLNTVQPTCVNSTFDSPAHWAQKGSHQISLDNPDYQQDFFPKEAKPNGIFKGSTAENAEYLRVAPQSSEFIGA

This assay has as its target T1, EGFR TMLRCS (Homo sapiens, UniProt P00533, C797S/L858R/T790M).
T1 construct: host or cells: BaF3-TMLRCS (Ba/F3 cells, kept under puromycin selection)
The assay is described as follows: HTRF Phospho EGFR TMLRCS Assay (Cellular). It is filed as cell-based. The note with it: BaF3-TMLRCS cell line, 4 hours incubation, Phospho-EGFR HTRF readout. An outline of the steps:
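BaF3 cells expressing EGFR L858R/T790M/C797S, 20000/well, treated with compound in dose response for 4 h at 37 °C, 5% CO2. After lysis, phospho-EGFR detected by HTRF with cryptate and d2 antibodies over 4 h at room temperature. Signal taken as 665/616 nm ratio ×10000, normalized.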
For `O=C(Nc1nccs1)C(c1ncn2c1C[C@@H](F)C2)n1cc2c(Cl)cc(-c3ccc(CN4CCC(O)CC4)cc3)c(Cl)c2n1` (mixture of isomers) [Example 58, rac-2-(4,7-Dichloro-6-(4-((4-hydroxypiperidin-1-yl)methyl)phenyl)-2H-indazol-2-yl)-2-((R)-6-fluoro-6,7-dihydro-5H-pyrrolo[1,2-c]imidazol-1-yl)-N-(thiazol-2-yl)acetamide], the pIC50 is 8.30.

Turning to `O=C(Nc1nccs1)C(c1ncn2c1C[C@@H](F)C2)n1cc2c(Cl)cc(-c3ccc(N4CCOC(CO)C4)cc3)c(Cl)c2n1` (mixture of isomers) [Example 67, rac-2-(4,7-Dichloro-6-(4-(2-(hydroxymethyl)morpholino)phenyl)-2H-indazol-2-yl)-2-((R)-6-fluoro-6,7-dihydro-5H-pyrrolo[1,2-c]imidazol-1-yl)-N-(thiazol-2-yl)acetamide], the pIC50 was 8.52.

Compound `CCN1CCC(c2ccc(-c3cc(C)c4cn(C(C(=O)Nc5nccs5)c5ncn6c5C[C@@H](F)C6)nc4c3C)cc2)CC1` (stereo partly drawn) [Example 120, 2-(6-(4-(1-Ethylpiperidin-4-yl)phenyl)-4,7-dimethyl-2H-indazol-2-yl)-2-((R)-6-fluoro-6,7-dihydro-5H-pyrrolo[1,2-c]imidazol-1-yl)-N-(thiazol-2-yl)acetamide] gave a pIC50 of 7.82.

`O=C(Nc1nccs1)C(c1ncn2c1C[C@@H](F)C2)n1cc2c(Cl)cc(-c3ccc(OCCN4CCC(O)CC4)cc3)c(Cl)c2n1` (mixture of isomers) [Example 77, rac-2-(4,7-Dichloro-6-(4-(2-(4-hydroxypiperidin-1-yl)ethoxy)phenyl)-2H-indazol-2-yl)-2-((R)-6-fluoro-6,7-dihydro-5H-pyrrolo[1,2-c]imidazol-1-yl)-N-(thiazol-2-yl)acetamide] showed a negative logarithm of the IC50 (pIC50) of 9.00.

Consider `CC1(O)CCN(Cc2ccc(-c3cc(Cl)c4cn(C(C(=O)Nc5nccs5)c5ncn6c5C[C@@H](F)C6)nc4c3Cl)cc2)CC1` (mixture of isomers) [Example 97, rac-2-(4,7-Dichloro-6-(4-((4-hydroxy-4-methylpiperidin-1-yl)methyl)phenyl)-2H-indazol-2-yl)-2-((R)-6-fluoro-6,7-dihydro-5H-pyrrolo[1,2-c]imidazol-1-yl)-N-(thiazol-2-yl)acetamide], for which the negative-log IC50 (pIC50) is 8.30.

`COC1CCN(Cc2ccc(-c3cc(Cl)c4cn(C(C(=O)Nc5nccs5)c5ncn6c5C[C@@H](F)C6)nc4c3Cl)cc2)C1` (mixture of isomers) [Example 98, rac-2-(4,7-Dichloro-6-(4-((3-methoxypyrrolidin-1-yl)methyl)phenyl)-2H-indazol-2-yl)-2-((R)-6-fluoro-6,7-dihydro-5H-pyrrolo[1,2-c]imidazol-1-yl)-N-(thiazol-2-yl)acetamide] showed a pIC50 of 8.22. The pIC50 values of the last two compounds are within 0.2 log units of each other.

With `O=C(Nc1nccs1)C(c1ncn2c1C[C@@H](F)C2)n1cc2c(Cl)cc(-c3ccc(CN4CCC(F)(CO)CC4)cc3)c(Cl)c2n1` (stereo partly drawn) [Example 65, 2-(4,7-Dichloro-6-(4-((4-fluoro-4-(hydroxymethyl)piperidin-1-yl)methyl)phenyl)-2H-indazol-2-yl)-2-((R)-6-fluoro-6,7-dihydro-5H-pyrrolo[1,2-c]imidazol-1-yl)-N-(thiazol-2-yl)acetamide], the pIC50 was 8.40.

`COCCN1CCC(c2ccc(-c3cc(C)c4cn(C(C(=O)Nc5nccs5)c5ncn6c5C[C@@H](F)C6)nc4c3Cl)cc2)CC1` (stereo partly drawn) [Example 130, 2-(7-Chloro-6-(4-(1-(2-methoxyethyl)piperidin-4-yl)phenyl)-4-methyl-2H-indazol-2-yl)-2-((R)-6-fluoro-6,7-dihydro-5H-pyrrolo[1,2-c]imidazol-1-yl)-N-(thiazol-2-yl)acetamide]: the negative-log IC50 (pIC50) was 7.92.

For the compound `O=C(Nc1nccs1)C(c1ncn2c1C[C@@H](F)C2)n1cc2c(Cl)cc(-c3ccc([C@@H]4CCN(C5CC(O)C5)C[C@H]4F)cc3)c(Cl)c2n1` (single isomer, unassigned) [Example 55], the pIC50 is 8.30. Compared with the last compound, the pIC50 is 0.38 log units higher.

For orientation: pIC50 means the IC50 on a negative log10 scale, so that one unit is a factor of ten. Low values mean a large IC50, high ones a small IC50.

The values are drawn from patent US12479849B2, “EGFR inhibitors for the treatment of cancer” (Hoffmann-La Roche Inc., priority 2019, dated 2025).
